Data taken from US20220153754A1 (JANSSEN SCIENCES IRELAND UNLIMITED COMPANY, priority 2019, published 2022).

Test system: HBV
Experiment: HBV replication inhibition assay (BDNA assay)
Format: cell-based
Conditions: Hepatitis B virus, HepG2.2.15, 144 h, HepG2.2.15 cells, incubated with compound for 6 days, encapsidated HBV DNA from supernatant detected by branched DNA QuantiGene assay
Description: HBV replication inhibition by the disclosed compounds were determined in cells infected or transfected with HBV or cells with stably integrated HBV, such as HepG2.2.15 cells (Sells et al. 1987). In this example, HepG2.2.15 cells were maintained in cell culture medium containing 10% fetal bovine serum (FBS), Geneticin, L-glutamine, penicillin and streptomycin. HepG2.2.15 cells were seeded in 96-well plates at a density of 40,000 cells/well and were treated with serially diluted compounds at a final DMSO concentration of 0.5% either alone or in combination by adding drugs in a checker box format. Cells were incubated with compounds for three days, after which medium was removed and fresh medium containing compounds was added to cells and incubated for another three days. At day 6, supernatant was removed and treated with DNase at 37° C. for 60 minutes, followed by enzyme inactivation at 75° C. for 15 minutes. Encapsidated HBV DNA was released from the virions and covalently linked HBV polymerase by incubating in lysis buffer (Affymetrix QS0010) containing 2.5 μg proteinase K at 50° C. for 40 minutes. HBV DNA was denatured by addition of 0.2 M NaOH and detected using a branched DNA (BDNA) QuantiGene assay kit according to manufacturer recommendation (Affymetrix). HBV DNA levels were also quantified using qPCR, based on amplification of encapsidated HBV DNA extraction with QuickExtraction Solution (Epicentre Biotechnologies) and amplification of HBV DNA using HBV specific PCR probes that can hybridize to HBV DNA and a fluorescently labeled probe for quantitation. In addition, cell viability of HepG2.2.15 cells incubated with test compounds alone or in combination was determined by using CellTitre-Glo reagent according to the manufacturer protocol (Promega). The mean background signal from wells containing only culture medium was subtracted from all other samples, and percent inhibition at each compound concentration was calculated by normalizing to signals from HepG2.2.15 cells treated with 0.5% DMSO using equation E1.
where DMSOave is the mean signal calculated from the wells that were treated with DMSO control (0% inhibition control) and Xi is the signal measured from the individual wells. EC50 values, effective concentrations that achieved 50% inhibitory effect, were determined by non-linear fitting using Graphpad Prism software (San Diego, Calif.) and equation E2.
where Y represents percent inhibition values and X represents the logarithm of compound concentrations.
Selected disclosed compounds were assayed in the HBV replication assay (BDNA assay), as described above, and a representative group of these active compounds is shown in Table 3.

| Structure (SMILES) | EC50 [nM] |
| --- | --- |
| O=C(Nc1ccc(F)c(C(F)(F)F)c1)N1CCc2nn3c(c2C1)-c1nocc1CC(COCC(F)F)C3 (single isomer, unassigned) [Example 6, (5S*)-5-((2,2-Difluoroethoxy)methyl)-N-(4-fluoro-3-(trifluoromethyl)phenyl)-5,6,9,10-tetrahydro-4H-isoxazolo[3,4-c]pyrido[4′,3′:3,4]pyrazolo[1,5-a]azepine-11(12H)-carboxamide] | 45 |
| O=C(Nc1ccc(F)c(C(F)(F)F)c1)N1CCc2nn3c(c2C1)-c1nocc1C[C@@H](COCC(F)F)C3 (single isomer, unassigned) [Example 8, (5R*)-5-((2,2-Difluoroethoxy)methyl)-N-(4-fluoro-3-(trifluoromethyl)phenyl)-5,6,9,10-tetrahydro-4H-isoxazolo[3,4-c]pyrido[4′,3′:3,4]pyrazolo[1,5-a]azepine-11(12H)-carboxamide] | 26 |
| C=C1Cc2conc2-c2c3c(nn2C1)CCN(C(=O)Nc1ccc(F)c(C#N)c1)C3 [Example 1, N-(3-Cyano-4-fluorophenyl)-5-methylene-5,6,9,10-tetrahydro-4H-isoxazolo[3,4-c]pyrido[4′,3′:3,4]pyrazolo[1,5-a]azepine-11(12H)-carboxamide] | 64 |
| C=C1Cc2conc2-c2c3c(nn2C1)CCN(C(=O)Nc1ccc(F)c(C(F)(F)F)c1)C3 [Example 2, N-(4-Fluoro-3-(trifluoromethyl)phenyl)-5-methylene-5,6,9,10-tetrahydro-4H-isoxazolo[3,4-c]pyrido[4′,3′:3,4]pyrazolo[1,5-a]azepine-11(12H)-carboxamide] | 75 |
| N#Cc1cc(NC(=O)N2CCc3nn4c(c3C2)-c2nocc2CC(CO)C4)ccc1F (stereo not shown) [Example 3, N-(3-Cyano-4-fluorophenyl)-5-(hydroxymethyl)-5,6,9,10-tetrahydro-4H-isoxazolo[3,4-c]pyrido[4′,3′:3,4]pyrazolo[1,5-a]azepine-11(12H)-carboxamide] | 23 |
| O=C(Nc1ccc(F)c(C(F)(F)F)c1)N1CCc2nn3c(c2C1)-c1nocc1CC(CO)C3 (stereo not shown) [Example 4, N-(4-Fluoro-3-(trifluoromethyl)phenyl)-5-(hydroxymethyl)-5,6,9,10-tetrahydro-4H-isoxazolo[3,4-c]pyrido[4′,3′:3,4]pyrazolo[1,5-a]azepine-11(12H)-carboxamide] | 57 |
| C=C1Cc2cnoc2-c2c3c(nn2C1)CCN(C(=O)Nc1ccc(F)c(C#N)c1)C3 [Example 9, N-(3-Cyano-4-fluorophenyl)-5-methylene-5,6,9,10-tetrahydro-4H-isoxazolo[5,4-c]pyrido[4′,3′:3,4]pyrazolo[1,5-a]azepine-11(12H)-carboxamide] | 800 |
| C=C1Cc2cnoc2-c2c3c(nn2C1)CCN(C(=O)Nc1ccc(F)c(C(F)(F)F)c1)C3 [Example 10, N-(4-Fluoro-3-(trifluoromethyl)phenyl)-5-methylene-5,6,9,10-tetrahydro-4H-isoxazolo[5,4-c]pyrido[4′,3′:3,4]pyrazolo[1,5-a]azepine-11(12H)-carboxamide] | 350 |
| N#Cc1cc(NC(=O)N2CCc3nn4c(c3C2)-c2nocc2CC(O)C4)ccc1F (stereo not shown) [Example 11, N-(3-Cyano-4-fluorophenyl)-5-hydroxy-5,6,9,10-tetrahydro-4H-isoxazolo[3,4-c]pyrido[4′,3′:3,4]pyrazolo[1,5-a]azepine-11(12H)-carboxamide] | 43 |
| CC1Cc2conc2-c2c3c(nn2C1)CCN(C(=O)Nc1ccc(F)c(C(F)(F)F)c1)C3 (stereo not shown) [Example 12, N-(4-Fluoro-3-(trifluoromethyl)phenyl)-5-methyl-5,6,9,10-tetrahydro-4H-isoxazolo[3,4-c]pyrido[4′,3′:3,4]pyrazolo[1,5-a]azepine-11(12H)-carboxamide] | 52 |
| CC1Cc2conc2-c2c3c(nn2C1)CCN(C(=O)Nc1ccc(F)c(C#N)c1)C3 (stereo not shown) [Example 13, N-(3-Cyano-4-fluorophenyl)-5-methyl-5,6,9,10-tetrahydro-4H-isoxazolo[3,4-c]pyrido[4′,3′:3,4]pyrazolo[1,5-a]azepine-11(12H)-carboxamide] | 52 |
| C[C@@H]1Cc2nn3c(c2CN1C(=O)Nc1ccc(F)c(C#N)c1)-c1oncc1CCC3 [Example 14, (10R)—N-(3-Cyano-4-fluorophenyl)-10-methyl-5,6,9,10-tetrahydro-4H-isoxazolo[5,4-c]pyrido[4′,3′:3,4]pyrazolo[1,5-a]azepine-11(12H)-carboxamide] | 59 |
| C[C@@H]1Cc2nn3c(c2CN1C(=O)Nc1ccc(F)c(C(F)(F)F)c1)-c1oncc1CCC3 [Example 15, (10R)—N-(4-Fluoro-3-(trifluoromethyl)phenyl)-10-methyl-5,6,9,10-tetrahydro-4H-isoxazolo[5,4-c]pyrido[4′,3′:3,4]pyrazolo[1,5-a]azepine-11(12H)-carboxamide] | 83 |
| C[C@@H]1Cc2nn3c(c2CN1C(=O)Nc1ccc(F)c(C#N)c1)-c1ncccc1CCC3 [Example 16, (11R)—N-(3-Cyano-4-fluorophenyl)-11-methyl-6,7,10,11-tetrahydro-5H-pyrido[2,3-c]pyrido[4′,3′:3,4]pyrazolo[1,5-a]azepine-12(13H)-carboxamide] | 330 |
| C[C@@H]1Cc2nn3c(c2CN1C(=O)Nc1ccc(F)c(C(F)(F)F)c1)-c1ncccc1CCC3 [Example 17, (11R)—N-(4-Fluoro-3-(trifluoromethyl)phenyl)-11-methyl-6,7,10,11-tetrahydro-5H-pyrido[2,3-c]pyrido[4′,3′:3,4]pyrazolo[1,5-a]azepine-12(13H)-carboxamide] | 220 |
| C[C@@H]1Cc2nn3c(c2CN1C(=O)Nc1ccc(F)c(C#N)c1)-c1nocc1CCC3 [Example 18, (10R)—N-(3-Cyano-4-fluorophenyl)-10-methyl-5,6,9,10-tetrahydro-4H-isoxazolo[3,4-c]pyrido[4′,3′:3,4]pyrazolo[1,5-a]azepine-11(12H)-carboxamide] | 15 |
| C[C@@H]1Cc2nn3c(c2CN1C(=O)Nc1ccc(F)c(C(F)(F)F)c1)-c1nocc1CCC3 [Example 19, (10R)—N-(4-Fluoro-3-(trifluoromethyl)phenyl)-10-methyl-5,6,9,10-tetrahydro-4H-isoxazolo[3,4-c]pyrido[4′,3′:3,4]pyrazolo[1,5-a]azepine-11(12H)-carboxamide] | 27 |
| O=C(Nc1ccc(F)c(Cl)c1)N1CCc2nn3c(c2C1)-c1nncn1CCC3 [Example 20, N-(3-Chloro-4-fluorophenyl)-6,7,10,11-tetrahydro-5H-pyrido[4′,3′:3,4]-pyrazolo[1,5-a][1,2,4]triazolo[3,4-c][1,4]diazepine-12(13H)-carboxamide] | 2000 |
| Cc1nnc2n1CCCn1nc3c(c1-2)CN(C(=O)Nc1ccc(F)c(Cl)c1)CC3 [Example 21, N-(3-Chloro-4-fluorophenyl)-3-methyl-6,7,10,11-tetrahydro-5H-pyrido-[4′,3′:3,4]pyrazolo[1,5-a][1,2,4]triazolo[3,4-c][1,4]diazepine-12(13H)-carboxamide] | 2700 |
| C[C@@H]1Cc2nn3c(c2CN1C(=O)Nc1ccc(F)c(Cl)c1)-c1nncn1CCC3 [Example 22, (R)—N-(3-Chloro-4-fluorophenyl)-11-methyl-6,7,10,11-tetrahydro-5H-pyrido[4′,3′:3,4]pyrazolo[1,5-a][1,2,4]triazolo[3,4-c][1,4]diazepine-12(13H)-carboxamide] | > 4000 |
| Cc1nnc2n1CCCn1nc3c(c1-2)CN(C(=O)Nc1ccc(F)c(Cl)c1)[C@H](C)C3 [Example 23] | > 4000 |
| N#Cc1cc(NC(=O)N2CCc3nn4c(c3C2)-c2nnccc2CCC4)ccc1F [Example 24, N-(3-Cyano-4-fluorophenyl)-6,7,10,11-tetrahydro-5H-pyridazino[3,4-c]pyrido[4′,3′:3,4]pyrazolo[1,5-a]azepine-12(13H)-carboxamide] | 910 |
| O=C(Nc1ccc(F)c(Cl)c1)N1CCc2nn3c(c2C1)-c1n[nH]cc1CCC3 [Example 25, N-(3-Chloro-4-fluorophenyl)-4,5,6,9,10,12-hexahydropyrazolo[3,4-c]pyrido[4′,3′:3,4]pyrazolo[1,5-a]azepine-11(2H)-carboxamide] | 28 |
| N#Cc1cc(NC(=O)N2CCc3nn4c(c3C2)-c2n[nH]cc2CCC4)ccc1F [Example 26, N-(3-Cyano-4-fluorophenyl)-4,5,6,9,10,12-hexahydropyrazolo[3,4-c]pyrido[4′,3′:3,4]pyrazolo[1,5-a]azepine-11(2H)-carboxamide] | 23 |
| N#Cc1cc(NC(=O)N2CCc3nn4c(c3C2)-c2ncccc2CCC4)ccc1F [Example 27, N-(3-Cyano-4-fluorophenyl)-6,7,10,11-tetrahydro-5H-pyrido[2,3-c]pyrido[4′,3′:3,4]pyrazolo[1,5-a]azepine-12(13H)-carboxamide] | 170 |
